Source: ChEMBL document CHEMBL1201862, “PubChem BioAssay data set” (2004)
Active and inactive are the calls of the source.

Columns and labels:
[1] = biological target: Eukaryotic translation initiation factor 4H (Homo sapiens, UniProt Q15056); experiment: eIF4H binding inhibition – biochemical, uHTS, fluorescence polarization, translation initiation inhibitor project, primary screen (AID 2012)
[2] = biological target: Polyadenylate-binding protein 1 (Homo sapiens, UniProt P11940); experiment: blockers of PABP interaction with poly(A) – biochemical, fluorescence polarization, […] (AID 2014)
Polyadenylate-binding protein 1, sequence (P11940 whole entry): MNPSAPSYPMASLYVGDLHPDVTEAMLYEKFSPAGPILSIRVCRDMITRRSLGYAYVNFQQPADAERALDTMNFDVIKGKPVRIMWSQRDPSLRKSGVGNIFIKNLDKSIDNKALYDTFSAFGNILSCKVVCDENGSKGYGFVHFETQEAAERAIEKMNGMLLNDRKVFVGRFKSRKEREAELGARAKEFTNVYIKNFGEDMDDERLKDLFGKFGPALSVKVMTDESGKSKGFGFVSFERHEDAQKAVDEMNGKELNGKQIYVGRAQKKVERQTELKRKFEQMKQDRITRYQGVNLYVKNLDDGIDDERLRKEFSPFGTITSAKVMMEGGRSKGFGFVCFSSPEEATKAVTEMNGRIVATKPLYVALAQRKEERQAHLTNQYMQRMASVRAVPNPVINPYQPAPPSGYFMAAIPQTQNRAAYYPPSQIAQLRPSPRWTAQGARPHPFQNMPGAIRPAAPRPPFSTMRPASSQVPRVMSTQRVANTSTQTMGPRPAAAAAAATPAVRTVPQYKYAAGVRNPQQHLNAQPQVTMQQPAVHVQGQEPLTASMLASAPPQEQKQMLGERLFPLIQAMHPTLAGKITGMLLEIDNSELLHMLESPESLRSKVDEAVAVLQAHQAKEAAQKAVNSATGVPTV

Trypsin = Trypsin (Sus scrofa, UniProt P00761); experiment: trypsin protease activity blockade – biochemical, quenched peptide fluorescence, cherry-pick, selectivity assay for Rce1 protease inhibitor project, dose response (AID 488789)
Trypsin, sequence (P00761 whole entry): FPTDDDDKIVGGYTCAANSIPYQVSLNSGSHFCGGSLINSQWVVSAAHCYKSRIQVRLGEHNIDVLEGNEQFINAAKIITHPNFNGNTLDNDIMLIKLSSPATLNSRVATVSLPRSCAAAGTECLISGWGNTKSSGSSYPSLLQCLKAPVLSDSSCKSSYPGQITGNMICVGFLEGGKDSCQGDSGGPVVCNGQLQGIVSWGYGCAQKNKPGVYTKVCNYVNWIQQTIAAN

CAAX prenyl protease 2 = biological target: T1, CAAX prenyl protease 2 (Saccharomyces cerevisiae S288c, UniProt Q03530); type: biochemical
T1 sequence (Q03530 whole entry): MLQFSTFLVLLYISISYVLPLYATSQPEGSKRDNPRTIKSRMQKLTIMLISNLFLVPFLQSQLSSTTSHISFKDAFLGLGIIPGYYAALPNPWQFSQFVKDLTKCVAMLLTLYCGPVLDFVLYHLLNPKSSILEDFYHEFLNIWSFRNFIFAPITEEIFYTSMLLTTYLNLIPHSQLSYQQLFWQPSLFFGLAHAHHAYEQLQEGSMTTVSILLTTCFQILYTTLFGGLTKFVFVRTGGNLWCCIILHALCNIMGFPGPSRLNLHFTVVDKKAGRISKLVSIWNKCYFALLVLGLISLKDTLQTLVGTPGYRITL

Estrogen receptor = biological target: T2, Estrogen receptor (Homo sapiens, UniProt P03372); experiment: blockers of SRC-3 recruitment to ERα – biochemical, ELISA, streptavidin-HRP readout, orthogonal assay, confirmation (AID 1079)
T2 sequence (P03372 whole entry): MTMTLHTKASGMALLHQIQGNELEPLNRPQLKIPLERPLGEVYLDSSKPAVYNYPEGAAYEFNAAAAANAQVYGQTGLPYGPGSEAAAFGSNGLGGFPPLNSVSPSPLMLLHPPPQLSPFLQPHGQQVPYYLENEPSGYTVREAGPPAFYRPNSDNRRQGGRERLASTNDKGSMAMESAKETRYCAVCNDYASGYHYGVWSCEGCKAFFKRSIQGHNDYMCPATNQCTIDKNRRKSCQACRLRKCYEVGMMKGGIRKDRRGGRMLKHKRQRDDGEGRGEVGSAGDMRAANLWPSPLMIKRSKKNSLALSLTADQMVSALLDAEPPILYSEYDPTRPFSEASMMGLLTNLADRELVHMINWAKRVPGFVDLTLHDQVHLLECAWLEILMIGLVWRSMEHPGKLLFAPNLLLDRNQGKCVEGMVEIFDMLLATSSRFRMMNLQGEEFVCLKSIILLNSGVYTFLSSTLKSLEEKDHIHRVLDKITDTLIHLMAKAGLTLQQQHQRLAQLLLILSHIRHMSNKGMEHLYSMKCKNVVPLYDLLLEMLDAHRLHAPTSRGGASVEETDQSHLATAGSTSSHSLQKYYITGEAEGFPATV

[3] = biological target: DNA dC->dU-editing enzyme APOBEC-3A (Homo sapiens, UniProt P31941); experiment: A3A deaminase inhibition for selectivity – biochemical, dose response (AID 504722); type: functional
DNA dC->dU-editing enzyme APOBEC-3A, sequence (P31941 whole entry): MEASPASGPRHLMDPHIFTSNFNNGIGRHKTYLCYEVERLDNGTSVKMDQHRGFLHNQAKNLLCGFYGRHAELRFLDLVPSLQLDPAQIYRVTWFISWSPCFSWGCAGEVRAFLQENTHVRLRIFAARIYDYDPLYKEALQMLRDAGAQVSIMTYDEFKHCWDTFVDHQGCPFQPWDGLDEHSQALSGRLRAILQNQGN

[4] = biological target: DNA dC->dU-editing enzyme APOBEC-3G (Homo sapiens, UniProt Q9HC16); experiment: Dose Response confirmation of small molecule APOBEC3G DNA Deaminase Inhibitors via a fluorescence-based single-stranded DNA deaminase assay. [Related pubchem assays (depositor defined):AID493012, AID493028]; type: functional
DNA dC->dU-editing enzyme APOBEC-3G, sequence (Q9HC16 whole entry): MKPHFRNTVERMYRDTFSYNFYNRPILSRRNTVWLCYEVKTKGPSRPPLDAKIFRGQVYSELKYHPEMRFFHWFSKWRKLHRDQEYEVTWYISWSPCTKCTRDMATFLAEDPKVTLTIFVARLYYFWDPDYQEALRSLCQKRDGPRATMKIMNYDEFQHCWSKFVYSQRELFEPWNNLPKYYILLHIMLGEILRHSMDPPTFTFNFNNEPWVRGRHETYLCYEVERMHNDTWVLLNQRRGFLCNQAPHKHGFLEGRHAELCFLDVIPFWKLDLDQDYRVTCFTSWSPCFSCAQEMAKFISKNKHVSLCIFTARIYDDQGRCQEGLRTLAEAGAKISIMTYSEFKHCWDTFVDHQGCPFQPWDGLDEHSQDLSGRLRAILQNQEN

| Structure (SMILES) | AC50 (Trypsin) | AC50 (CAAX prenyl protease 2) | IC50 (Estrogen receptor) | also measured |
| --- | --- | --- | --- | --- |
| CCC(c1nnc(SCCNCCO)n1CCN1CCOCC1)N(C)C (stereo not given) |  |  |  | IC50 [1]: > 100 µM (inactive); IC50 [2]: 7.33 µM (active) |
| Nc1ccc2c(C(F)(F)F)cc(C(F)(F)F)nc2n1 | 10.7 µM (active) | > 100 µM (inactive) |  |  |
| O=C(CCCCCn1c(=S)[nH]c2ccccc2c1=O)N1CCC(O)(c2ccc(Cl)cc2)CC1 |  |  | 0.08 µM (not active) |  |
| c1ccc(-c2ccc(-c3cn4c(n3)CCC4)cc2)cc1 | 2.37 µM (active) | 4.15 µM (active) |  |  |
| O=C(CCCn1c(=S)[nH]c2ccccc2c1=O)N1CCN(c2cccc3ccccc23)CC1 |  |  | 0.07 µM (not active) |  |
| C=CCn1c(OCc2ccccc2)n[nH]c1=S |  |  |  | IC50 [3]: > 100 µM (inactive); IC50 [4]: 7.3 µM (active) |
